Literature values as cited in patent US20160045473A1, “Biological Basis Of Adult Wellness” (priority 2012, published 2016).

Settings: healthy volunteers, at least one study

- absorption: well absorbed
Structure (SMILES): O=C(O)[C@@H]1CCCN1 [proline, L-proline]
